Reference: article PMC10057391, “Novel ^68Ga-Labeled Pyridine-Based Fibroblast Activation Protein-Targeted Tracers with High Tumor-to-Background Contrast” (Pharmaceuticals, 2023)
Read-outs that look alike come from different tables or passages of the source. Values belong to the compound of their own block, whether it stands above or below them.

Key:
FAP = tested on: FAP; set-up: method as in PMID 24617858; details: cited from earlier work
recombinant human FAP = target: T1, recombinant human FAP (Homo sapiens, UniProt Q12884); assay: In vitro FAP fluorescence enzyme inhibition assay (Suc-Gly-Pro-AMC substrate); assay type: biochemical; details: nonradioactive Ga-complexed standards
T1 construct: purchased Bio-legend, San Diego, CA, USA
T1 sequence (Q12884 1-760): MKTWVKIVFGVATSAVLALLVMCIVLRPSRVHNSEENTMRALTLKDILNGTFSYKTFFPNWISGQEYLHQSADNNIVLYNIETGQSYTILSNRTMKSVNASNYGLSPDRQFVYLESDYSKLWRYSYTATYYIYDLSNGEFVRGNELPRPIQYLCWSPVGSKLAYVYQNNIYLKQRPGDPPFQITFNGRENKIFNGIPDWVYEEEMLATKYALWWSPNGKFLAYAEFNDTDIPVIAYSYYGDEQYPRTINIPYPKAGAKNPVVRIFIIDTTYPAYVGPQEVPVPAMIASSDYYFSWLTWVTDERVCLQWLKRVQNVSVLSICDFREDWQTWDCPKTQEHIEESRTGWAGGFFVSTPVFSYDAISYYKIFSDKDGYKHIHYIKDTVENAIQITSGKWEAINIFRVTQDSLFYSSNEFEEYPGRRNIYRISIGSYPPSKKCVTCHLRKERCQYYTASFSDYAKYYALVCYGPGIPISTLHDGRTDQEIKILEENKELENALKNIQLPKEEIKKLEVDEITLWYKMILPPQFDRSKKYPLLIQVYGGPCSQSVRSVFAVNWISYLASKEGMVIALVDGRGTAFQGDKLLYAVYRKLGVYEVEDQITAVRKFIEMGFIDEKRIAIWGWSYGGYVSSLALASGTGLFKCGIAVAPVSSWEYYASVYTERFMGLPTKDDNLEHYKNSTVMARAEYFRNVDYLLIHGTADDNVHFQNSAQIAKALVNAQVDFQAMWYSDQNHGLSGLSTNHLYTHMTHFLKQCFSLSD
Protocol: The binding affinities of Ga-AV02053 and Ga-AV02070 to human FAP were measured by an enzyme inhibition assay using Suc-Gly-Pro-AMC as the FAP substrate. The human FAP enzymatic activity on the substrate was inhibited by Ga-AV02053 and Ga-AV02070 in a dose dependent-manner (Figure 2).
The half maximal inhibitory concentration (IC50) values of the tested compounds for FAP were measured by in vitro enzymatic assay. The recombinant human FAP (Bio-legend, San Diego, CA, USA; 0.2 µg/mL, 50 µL) was added into costar 96-well plate. PBS and varied concentrations (0.2 pM to 2 µM) of tested nonradioactive Ga-complexed standards were added to each well (in duplicate) containing the recombinant human FAP. After being incubated for 30 min at 37 °C, 50 µL of Suc-Gly-Pro-AMC (2 µM, Bachem, Torrance, CA, USA) was added to each well. The fluorescent signals were acquired at 15, 30, 45, and 60 min using FlexStation 3 Multi-Mode Microplate Reader with excitation at 380 nm and emission at 460 nm. The IC50 (FAP) values were calculated using “nonlinear fit model” built-in model in GraphPad Prism 7.02 software.

[1] = LogD7.4 measurement, shake flask method (n-octanol/PBS pH 7.4); assay type: physicochemical; details: n-octanol / phosphate-buffered saline pH 7.4, shake flask
Description: The lipophilicity of ^68Ga-labeled AV02053, AV02070, and FAPI-04 were estimated by measuring their LogD7.4 values using the shake flask method with n-octanol and phosphate-buffered saline (pH 7.4). The LogD7.4 values of [^68Ga]Ga-AV02053, [^68Ga]Ga-AV02070, and [^68Ga]Ga-FAPI-04 were −3.75 ± 0.16, −3.45 ± 0.10, and −1.02 ± 0.35, respectively. The values indicate that these ^68Ga-labeled tracers are hydrophilic, and the pyridine-based FAP-targeted tracers, [^68Ga]Ga-AV02053 and [^68Ga]Ga-AV02070, are more hydrophilic than [^68Ga]Ga-FAPI-04.
The lipophilicity characteristics of the ^68Ga-labeled pyridine-based FAPIs were determined by calculating the logarithm of the distribution coefficient (logD) in n-octanol/phosphate-buffered saline (PBS) of pH 7.4. Purified ^68Ga-labeled tracer (50 µL) was added into a test tube containing 1 mL n-octanol and 1 mL PBS. The mixture was vortexed, followed by centrifugation for 5 min at 3000 rpm. The two layers were then collected separately, and the radioactivity was counted using a Perkin Elmer (Waltham, MA, USA) Wizard2 2480 automatic gamma counter. After adjusting the counts to background and calculating the ratio (D) of the activity of the organic to that of the aqueous phase, the logD values were then calculated.

[2] = tested on: HEK293T:hFAP tumor xenografts; assay: Ex vivo biodistribution and blocking study in HEK293T:hFAP tumor-bearing mice; details: 1 h post-injection; for average kidney uptake: range given for the two tracers together; for tumor uptake: HEK293T:hFAP tumor; for average tumor uptake with co-injection of FAPI-04 / reduction of average tumor uptake by co-injection of FAPI-04: blocking, FAPI-04 250 µg co-injected
Protocol: Biodistribution studies were conducted at 1 h post-injection with [^68Ga]Ga-AV02053 and [^68Ga]Ga-AV02070 in HEK293T:hFAP tumor-bearing mice, and the data are compared with those obtained previously using [^68Ga]Ga-FAPI-04 (Figure 4 and Figure 5 and Table S4). The results are consistent with the observations from their PET images. Except tumor and kidneys (1.35–1.85%ID/g), the average uptake values of [^68Ga]Ga-AV02053 and [^68Ga]Ga-AV02070 in all other collected organs/tissues were <0.6%ID/g. The tumor uptake values of [^68Ga]Ga-AV02053, [^68Ga]Ga-AV02070, and [^68Ga]Ga-FAPI-04 were 5.60 ± 1.12, 7.93 ± 1.88, and 12.5 ± 2.00%ID/g, respectively. […] This also led to higher tumor-to-blood, tumor-to-muscle and tumor-to-bone uptake ratios for [^68Ga]Ga-AV02053 (25.2 ± 1.97, 51.2 ± 19.8 and 38.1 ± 5.03, respectively) and [^68Ga]Ga-AV02070 (22.9 ± 10.1, 45.7 ± 9.88 and 34.3 ± 7.35, respectively) than [^68Ga]Ga-FAPI-04 (11.7 ± 2.04, 18.8 ± 4.09 and 3.93 ± 1.16, respectively) (p < 0.05).
(§1) Imaging and biodistribution studies were performed using male NOD.Cg-Rag1tm1Mom Il2rgtm1Wjl/SzJ (NRG) mice following previously published procedures. The experiments were conducted according to the guidelines established by the Canadian Council on Animal Care and approved by Animal Ethics Committee of the University of British Columbia. The mice were briefly sedated by inhalation of 2.5% isoflurane in oxygen, and HEK293T:hFAP cells (8.5 × 10^6 cells) were inoculated subcutaneously behind the left shoulder. When the tumor grew to 5–8 mm in ~3 weeks, the mice were used for PET/CT imaging and biodistribution studies.
For biodistribution studies, the mice were injected with the radiotracer (~2–4 MBq), as described above. For the blocking study, the mice were co-injected with 250 μg of FAPI-04. At 1 h post-injection, the mice were euthanized by CO2 inhalation. Blood was withdrawn by cardiac puncture, and organs/tissues of interest were collected, weighed, and counted using a Perkin Elmer (Waltham, MA, USA) Wizard2 2480 automatic gamma counter.

[3] = tested on: HEK293T:hFAP tumor xenografts; assay: PET/CT imaging in mice bearing HEK293T:hFAP tumor xenografts; assay type: in vivo; details: PET imaging and biodistribution, 1 h post-injection
Protocol: Both tracers were excreted primarily through the renal pathway and had very low background uptake in normal organs/tissues. Although [^68Ga]Ga-AV02053 and [^68Ga]Ga-AV02070 had lower tumor uptake than that of previously reported [^68Ga]Ga-FAPI-04, both of them had much lower background uptake, resulting in better tumor-to-background contrast than that of [^68Ga]Ga-FAPI-04 (Figure 3).
as §1
PET/CT imaging experiments were carried out using a Siemens (Knoxville, TN, USA) Inveon micro PET/CT scanner. Each tumor-bearing mouse was injected with ~4–6 MBq of ^68Ga-labeled tracer through a lateral caudal tail vein under 2.5% isoflurane in oxygen anesthesia, followed by recovery and then roamed freely in its cage during the uptake period. […]

[4] = tested on: HEK293T:hFAP tumor xenografts; set-up: method as in PMID 36770755; details: 1 h post-injection, cited from earlier work

Structure (SMILES): N#C[C@@H]1CCCN1C(=O)CNC(=O)c1ccncc1 [(pyridine-4-carbonyl)glycyl-(2S)-cyanopyrrolidine]
- IC50 (FAP): 63 nM

- IC50 (recombinant human FAP): 187 ± 52 nM
Structure (SMILES): CN(CCN(C)c1ccc(C(=O)NCC(=O)N2CC(F)(F)C[C@H]2C#N)cn1)C(=O)CN1CCN(CC(=O)[O-])CCN(CC(=O)[O-])CCN(CC(=O)[O-])CC1.[Ga+3] [Ga-AV02053]

- IC50 (recombinant human FAP): 17.1 ± 4.6 nM
Structure (SMILES): CN(CCN(C)c1cc(C(=O)NCC(=O)N2CC(F)(F)C[C@H]2C#N)ccn1)C(=O)CN1CCN(CC(=O)[O-])CCN(CC(=O)[O-])CCN(CC(=O)[O-])CC1.[Ga+3] [Ga-AV02070]

- LogD7.4 [1]: −3.45 ± 0.10
- average uptake in all other collected organs/tissues (except tumor and kidneys) [2]: < 0.6 %ID/g
- average uptake in other major organs with vs without co-injection of FAPI-04 [2]: no significant difference
- blood uptake [2]: 0.36 ± 0.05 %ID/g
- bone uptake [2]: 0.23 ± 0.06 %ID/g
- muscle uptake [2]: 0.19 ± 0.10 %ID/g
- tumor-to-blood uptake ratio [2]: 22.9 ± 10.1
- tumor-to-bone uptake ratio [2]: 34.3 ± 7.35
- tumor-to-muscle uptake ratio [2]: 45.7 ± 9.88
- average kidney uptake [2]: 1.35–1.85 %ID/g
- tumor uptake [2]: 7.93 ± 1.88 %ID/g
- average tumor uptake with co-injection of FAPI-04 [2]: 0.21 %ID/g
Structure (SMILES): CN(CCN(C)c1cc(C(=O)NCC(=O)N2CC(F)(F)C[C@H]2C#N)ccn1)C(=O)CN1CCN(CC(=O)[O-])CCN(CC(=O)[O-])CCN(CC(=O)[O-])CC1.[68Ga+3] [[^68Ga]Ga-AV02070]
- reduction of average tumor uptake by co-injection of FAPI-04 [2]: 97%
- excretion pathway [3]: excreted mainly through the renal pathway

- LogD7.4 [1]: −3.75 ± 0.16
- average uptake in all other collected organs/tissues (except tumor and kidneys) [2]: < 0.6 %ID/g
- average uptake in other major organs with vs without co-injection of FAPI-04 [2]: no significant difference
- blood uptake [2]: 0.22 ± 0.04 %ID/g
- bone uptake [2]: 0.14 ± 0.02 %ID/g
- muscle uptake [2]: 0.12 ± 0.05 %ID/g
- tumor-to-blood uptake ratio [2]: 25.2 ± 1.97
- tumor-to-bone uptake ratio [2]: 38.1 ± 5.03
- tumor-to-muscle uptake ratio [2]: 51.2 ± 19.8
- average kidney uptake [2]: 1.35–1.85 %ID/g
- tumor uptake [2]: 5.6 ± 1.12 %ID/g
- average tumor uptake with co-injection of FAPI-04 [2]: 0.30 %ID/g
Structure (SMILES): CN(CCN(C)c1ccc(C(=O)NCC(=O)N2CC(F)(F)C[C@H]2C#N)cn1)C(=O)CN1CCN(CC(=O)[O-])CCN(CC(=O)[O-])CCN(CC(=O)[O-])CC1.[68Ga+3] [[^68Ga]Ga-AV02053]
- reduction of average tumor uptake by co-injection of FAPI-04 [2]: 95%
- excretion pathway [3]: excreted mainly through the renal pathway

- LogD7.4 [1]: −1.02 ± 0.35
Structure (SMILES): N#C[C@@H]1CC(F)(F)CN1C(=O)CNC(=O)c1ccnc2ccc(OCCCN3CCN(C(=O)CN4CCN(CC(=O)[O-])CCN(CC(=O)[O-])CCN(CC(=O)[O-])CC4)CC3)cc12.[68Ga+3] [[^68Ga]Ga-FAPI-04]
- blood uptake ([4]; obtained previously): 1.07 ± 0.08 %ID/g
- bone uptake ([4]; obtained previously): 3.36 ± 1.09 %ID/g
- muscle uptake ([4]; obtained previously): 0.67 ± 0.05 %ID/g
- tumor-to-blood uptake ratio ([4]; obtained previously): 11.7 ± 2.04
- tumor-to-bone uptake ratio ([4]; obtained previously): 3.93 ± 1.16
- tumor-to-muscle uptake ratio ([4]; obtained previously): 18.8 ± 4.09
- tumor uptake ([4]; HEK293T:hFAP tumor, previously reported): 12.5 ± 2.00 %ID/g
